These results are taken from EPA's ToxValDB 9.5 (doi:10.2903/j.efsa.2005.102r).

The subject of one data set is Folsomia candida. Conditions: chronic/long-term; duration: 28 days.
A further data set deals with Gammarus pulex. Conditions: chronic/long-term; duration: 28 days.
In another data set the test system is Anas platyrhynchos. Particulars: reproductive, duration: 5 days, oral, feed.
The next data set concerns Apis mellifera. Conditions: acute, duration: 48 hours, mortality.
The next data set deals with Canidae. Particulars: oral, Dog Other.
The subject of a further data set is Pontoscolex corethrurus. Conditions: chronic/long-term; reproduction.
The next data set concerns Tagia sp. Conditions: acute; mortality.
The test system of the next data set is Colinus virginianus. Particulars: oral, diet.
The next data set deals with Daphnia magna. Conditions: chronic/long-term; duration: 21 days.
For a further data set, the system named is Aphidius rhopalosiphi. Description: LR50; higher = less toxic. Particulars: not reported; mortality.
Another data set deals with Typhlodromus pyri. Briefly: LR50; higher = less toxic. Particulars: not reported; mortality.
The mark [1] stands for this setting: acute, duration: 96 hours, mortality.

SMILES strings stand for the structures. Converted amounts (≈) assume the structure as drawn.

With `CO/N=C(/C1=NOCCO1)c1ccccc1Oc1ncnc(Oc2ccccc2Cl)c1F` [Fluoxastrobin], the LD50 with Rattus norvegicus (acute, oral, mortality) was over 2000 mg/kg; in the data set with Apis mellifera (dermal), over 200 µg/piece; in the data set with Apis mellifera (oral, unspecified), over 843 µg/piece. Besides, the NOAEL with Rattus norvegicus (developmental, development) is over 742 mg/kg-day; in the data set with Canidae (chronic, duration: 1 years, clinical chemistry), 3 mg/kg-day; in the data set with Canidae (subchronic, duration: 90 days, body weight), 30 mg/kg-day; in the data set with Canidae (subchronic, duration: 90 days, clinical chemistry), 3 mg/kg-day. For the same molecule, the NOEC came to 5 mg/kg in the data set on Folsomia candida; 0.0316 mg/L with Gammarus pulex; 285 mg/kg-day in the data set on Anas platyrhynchos; 0.00061 mg/L with Neomysis kadiakensis (chronic/long-term, duration: 28 days); 151 mg/kg-day with Colinus virginianus (reproduction developmental, duration: 5 days); 0.0286 mg/L in the data set with Oncorhynchus mykiss (chronic/long-term, duration: 95 days, other). Further, the NOEC with Daphnia magna is 0.18 mg/L. Also, the LC50 in the data set on Anas platyrhynchos (mortality) is over 2190 mg/kg-day; with Neomysis kadiakensis (setting [1]) it was 0.0604 µg/mL (≈ 0.132 µM); in the data set on Tagia sp., over 500 mg/kg; in the data set on Colinus virginianus (acute, duration: 5 days, mortality), over 966 mg/kg-day; in the data set on Oncorhynchus mykiss (setting [1]) it was 0.435 µg/mL (≈ 0.948 µM). The NOEL with Pontoscolex corethrurus amounted to 1.33 mg/kg; in the data set with Colinus virginianus (short-term, mortality) it was 2000 mg/kg-day. The figures for the LR50 in the data set with Aphidius rhopalosiphi and in the data set on Typhlodromus pyri were 34.1 g/ha and 122 g/ha, respectively.

For orientation: NOAEL means the highest dose or exposure tested at which no adverse effect was seen.
